Data taken from article PMC10176470, “Engaging a Non-catalytic Cysteine Residue Drives Potent and Selective Inhibition of Caspase-6” (Journal of the American Chemical Society, 2023).

What was measured:
Type in all cases: cell-based
[1] = biological target: proteins of HEK293T cells transiently overexpressing caspase-6 (Homo sapiens, UniProt P06733); details: protein ENO1 (P06733)
[2] = biological target: proteins of HEK293T cells transiently overexpressing caspase-6 (Homo sapiens, UniProt P0DMV8); details: protein HSPA1A (P0DMV8)
[3] = biological target: proteins of HEK293T cells transiently overexpressing caspase-6 (Homo sapiens, UniProt P11021); details: protein HSPA5 (P11021)
[4] = biological target: proteins of HEK293T cells transiently overexpressing caspase-6 (Homo sapiens, UniProt P11142); details: protein HSPA8 (P11142)
[5] = biological target: proteins of HEK293T cells transiently overexpressing caspase-6 (Homo sapiens, UniProt P14866); details: exp_ref Probe; protein HNRNPL (P14866); analysis C6
[6] = biological target: proteins of HEK293T cells transiently overexpressing caspase-6 (Homo sapiens, UniProt P20700); details: exp_ref Probe; protein LMNB1 (P20700); analysis C6
[7] = biological target: proteins of HEK293T cells transiently overexpressing caspase-6 (Homo sapiens, UniProt P23526); details: exp_ref Probe; protein AHCY (P23526); analysis C6
[8] = biological target: proteins of HEK293T cells transiently overexpressing caspase-6 (Homo sapiens, UniProt P31946); details: exp_ref Probe; protein YWHAB (P31946); analysis C6
[9] = biological target: proteins of HEK293T cells transiently overexpressing caspase-6 (Homo sapiens, UniProt P34932); details: Probe; protein HSPA4 P34932
[10] = biological target: proteins of HEK293T cells transiently overexpressing caspase-6 (Homo sapiens, UniProt P37837); details: Probe; protein TALDO1 P37837
[11] = biological target: proteins of HEK293T cells transiently overexpressing caspase-6 (Homo sapiens, UniProt P42704); details: exp_ref Probe; protein LRPPRC (P42704); analysis C6
[12] = biological target: proteins of HEK293T cells transiently overexpressing caspase-6 (Homo sapiens, UniProt P63261); details: exp_ref Probe; protein ACTG1 (P63261); analysis C6
[13] = biological target: proteins of HEK293T cells transiently overexpressing caspase-6 (Homo sapiens, UniProt P78527); details: exp_ref Probe; protein PRKDC (P78527); analysis C6
[14] = biological target: T1, proteins of HEK293T cells transiently overexpressing caspase-6 (Homo sapiens, UniProt Q96F45); details: protein ZNF503 (Q96F45), analysis C6
T1 sequence (Q96F45 1-646): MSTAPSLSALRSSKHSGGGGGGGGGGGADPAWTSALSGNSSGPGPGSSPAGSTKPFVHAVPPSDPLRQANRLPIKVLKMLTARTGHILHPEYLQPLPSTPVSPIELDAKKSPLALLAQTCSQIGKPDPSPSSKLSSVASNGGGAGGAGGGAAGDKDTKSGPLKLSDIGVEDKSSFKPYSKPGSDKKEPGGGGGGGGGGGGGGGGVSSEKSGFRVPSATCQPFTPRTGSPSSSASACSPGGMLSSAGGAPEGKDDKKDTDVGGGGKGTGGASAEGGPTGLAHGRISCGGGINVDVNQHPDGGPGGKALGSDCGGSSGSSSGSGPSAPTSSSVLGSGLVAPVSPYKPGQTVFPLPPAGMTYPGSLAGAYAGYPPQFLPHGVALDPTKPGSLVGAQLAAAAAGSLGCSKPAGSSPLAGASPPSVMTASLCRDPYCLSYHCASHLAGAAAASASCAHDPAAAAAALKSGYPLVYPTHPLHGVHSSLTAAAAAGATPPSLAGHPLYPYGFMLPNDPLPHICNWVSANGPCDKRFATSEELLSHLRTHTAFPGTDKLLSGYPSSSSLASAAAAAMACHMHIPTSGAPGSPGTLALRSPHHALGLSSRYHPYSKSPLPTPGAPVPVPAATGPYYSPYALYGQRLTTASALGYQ

[15] = biological target: proteins of HEK293T cells transiently overexpressing caspase-6 (Homo sapiens, UniProt Q9NX40); details: protein OCIAD1 (Q9NX40); exp_ref Probe; analysis C6
[16] = biological target: proteins of HEK293T cells transiently overexpressing caspase-6 (Homo sapiens, UniProt Q9Y262); details: exp_ref Probe; protein EIF3L (Q9Y262); analysis C6
proteins of HEK293T cells transiently overexpressing caspase-6 (Homo sapiens, UniProt Q9Y262), sequence (Q9Y262 whole entry): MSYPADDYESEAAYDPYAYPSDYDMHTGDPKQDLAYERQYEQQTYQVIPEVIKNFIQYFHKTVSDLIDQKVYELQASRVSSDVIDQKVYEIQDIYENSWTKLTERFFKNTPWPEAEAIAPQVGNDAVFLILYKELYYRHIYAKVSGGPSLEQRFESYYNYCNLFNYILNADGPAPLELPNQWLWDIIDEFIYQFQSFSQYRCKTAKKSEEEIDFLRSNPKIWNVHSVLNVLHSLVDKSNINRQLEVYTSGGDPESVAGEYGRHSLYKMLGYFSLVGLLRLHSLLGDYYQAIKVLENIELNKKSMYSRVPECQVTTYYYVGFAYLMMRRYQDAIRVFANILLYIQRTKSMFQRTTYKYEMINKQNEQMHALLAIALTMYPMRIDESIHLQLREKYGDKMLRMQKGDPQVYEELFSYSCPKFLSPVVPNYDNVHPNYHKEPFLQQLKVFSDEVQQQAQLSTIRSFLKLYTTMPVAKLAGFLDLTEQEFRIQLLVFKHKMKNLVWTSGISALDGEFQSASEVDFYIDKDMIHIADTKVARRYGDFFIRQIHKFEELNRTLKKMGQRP

proteins of HEK293T cells transiently overexpressing caspase-6 (Homo sapiens, UniProt P06733), sequence (P06733 whole entry): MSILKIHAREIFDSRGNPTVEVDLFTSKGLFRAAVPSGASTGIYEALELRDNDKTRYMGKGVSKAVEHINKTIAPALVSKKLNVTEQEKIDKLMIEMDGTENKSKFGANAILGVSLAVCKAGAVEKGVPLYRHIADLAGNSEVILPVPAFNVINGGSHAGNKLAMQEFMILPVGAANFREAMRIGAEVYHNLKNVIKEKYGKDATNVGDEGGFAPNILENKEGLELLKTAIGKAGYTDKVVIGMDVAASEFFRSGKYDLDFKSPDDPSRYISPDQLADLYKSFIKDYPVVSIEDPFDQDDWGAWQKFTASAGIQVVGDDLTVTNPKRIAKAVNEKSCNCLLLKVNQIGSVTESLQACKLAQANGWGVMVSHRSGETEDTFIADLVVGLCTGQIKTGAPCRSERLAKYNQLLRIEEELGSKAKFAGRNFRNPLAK
proteins of HEK293T cells transiently overexpressing caspase-6 (Homo sapiens, UniProt P11142), sequence (P11142 whole entry): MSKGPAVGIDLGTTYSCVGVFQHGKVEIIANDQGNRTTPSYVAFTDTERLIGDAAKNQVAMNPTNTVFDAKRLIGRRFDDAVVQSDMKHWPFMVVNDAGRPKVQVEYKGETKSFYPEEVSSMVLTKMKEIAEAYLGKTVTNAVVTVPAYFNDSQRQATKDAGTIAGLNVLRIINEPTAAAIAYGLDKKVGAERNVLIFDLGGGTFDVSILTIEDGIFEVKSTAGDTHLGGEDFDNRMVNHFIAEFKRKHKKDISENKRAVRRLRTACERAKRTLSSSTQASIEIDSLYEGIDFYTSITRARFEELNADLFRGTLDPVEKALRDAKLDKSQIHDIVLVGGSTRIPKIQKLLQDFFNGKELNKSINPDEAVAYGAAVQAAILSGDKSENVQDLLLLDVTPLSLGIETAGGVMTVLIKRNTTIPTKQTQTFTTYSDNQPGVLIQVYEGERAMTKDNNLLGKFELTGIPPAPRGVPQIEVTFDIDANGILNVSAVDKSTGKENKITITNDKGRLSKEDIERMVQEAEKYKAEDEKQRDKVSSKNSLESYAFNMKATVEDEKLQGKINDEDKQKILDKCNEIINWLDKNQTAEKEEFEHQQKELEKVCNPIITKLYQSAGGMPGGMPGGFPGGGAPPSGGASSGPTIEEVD
proteins of HEK293T cells transiently overexpressing caspase-6 (Homo sapiens, UniProt P0DMV8), sequence (P0DMV8 whole entry): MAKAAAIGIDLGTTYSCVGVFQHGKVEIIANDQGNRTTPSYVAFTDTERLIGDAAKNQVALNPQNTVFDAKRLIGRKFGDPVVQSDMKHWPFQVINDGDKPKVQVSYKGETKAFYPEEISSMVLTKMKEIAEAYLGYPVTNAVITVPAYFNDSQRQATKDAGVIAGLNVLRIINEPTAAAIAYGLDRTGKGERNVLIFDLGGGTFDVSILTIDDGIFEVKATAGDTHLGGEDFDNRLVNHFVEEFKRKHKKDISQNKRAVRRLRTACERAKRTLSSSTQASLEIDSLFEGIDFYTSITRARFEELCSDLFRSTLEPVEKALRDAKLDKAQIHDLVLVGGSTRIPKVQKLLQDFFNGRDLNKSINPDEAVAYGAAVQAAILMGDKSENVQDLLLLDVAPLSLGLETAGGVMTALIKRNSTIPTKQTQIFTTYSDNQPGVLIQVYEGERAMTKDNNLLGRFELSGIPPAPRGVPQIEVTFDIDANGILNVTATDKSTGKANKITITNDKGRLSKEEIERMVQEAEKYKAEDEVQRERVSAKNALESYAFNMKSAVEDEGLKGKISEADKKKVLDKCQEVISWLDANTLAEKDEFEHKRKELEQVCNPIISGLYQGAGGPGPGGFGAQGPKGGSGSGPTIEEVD
proteins of HEK293T cells transiently overexpressing caspase-6 (Homo sapiens, UniProt P11021), sequence (P11021 19-654): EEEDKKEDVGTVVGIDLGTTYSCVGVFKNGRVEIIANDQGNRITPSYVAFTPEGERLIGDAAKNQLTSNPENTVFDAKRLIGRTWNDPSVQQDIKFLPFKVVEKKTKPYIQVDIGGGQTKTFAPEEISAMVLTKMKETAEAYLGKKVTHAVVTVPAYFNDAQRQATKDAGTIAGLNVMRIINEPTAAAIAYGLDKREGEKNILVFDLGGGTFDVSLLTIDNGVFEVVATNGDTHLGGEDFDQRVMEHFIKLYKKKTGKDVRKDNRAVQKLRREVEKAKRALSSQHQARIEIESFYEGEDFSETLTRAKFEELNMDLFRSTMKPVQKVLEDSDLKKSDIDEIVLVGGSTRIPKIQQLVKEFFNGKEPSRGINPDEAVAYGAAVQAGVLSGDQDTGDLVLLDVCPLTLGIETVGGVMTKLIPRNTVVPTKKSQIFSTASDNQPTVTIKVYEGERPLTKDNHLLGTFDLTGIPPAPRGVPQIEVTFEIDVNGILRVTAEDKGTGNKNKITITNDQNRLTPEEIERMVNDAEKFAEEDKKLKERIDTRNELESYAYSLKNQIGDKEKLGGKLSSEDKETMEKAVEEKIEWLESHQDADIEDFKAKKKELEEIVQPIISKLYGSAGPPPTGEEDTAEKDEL
proteins of HEK293T cells transiently overexpressing caspase-6 (Homo sapiens, UniProt P14866), sequence (P14866 whole entry): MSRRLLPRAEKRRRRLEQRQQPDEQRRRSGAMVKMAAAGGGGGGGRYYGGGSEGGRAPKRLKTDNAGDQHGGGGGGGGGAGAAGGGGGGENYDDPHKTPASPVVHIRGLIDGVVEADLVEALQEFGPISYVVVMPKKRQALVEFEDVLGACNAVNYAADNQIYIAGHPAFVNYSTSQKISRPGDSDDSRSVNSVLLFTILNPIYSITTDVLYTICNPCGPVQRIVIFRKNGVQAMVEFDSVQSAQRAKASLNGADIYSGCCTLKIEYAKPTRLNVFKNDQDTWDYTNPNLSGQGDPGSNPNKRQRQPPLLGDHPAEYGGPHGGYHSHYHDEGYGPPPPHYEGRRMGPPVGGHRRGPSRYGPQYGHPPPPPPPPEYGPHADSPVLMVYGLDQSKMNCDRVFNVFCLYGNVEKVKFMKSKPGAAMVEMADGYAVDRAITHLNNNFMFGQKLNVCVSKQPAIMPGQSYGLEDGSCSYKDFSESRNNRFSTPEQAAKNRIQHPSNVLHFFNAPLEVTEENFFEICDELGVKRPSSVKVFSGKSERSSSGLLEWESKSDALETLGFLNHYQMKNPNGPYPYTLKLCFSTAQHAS
proteins of HEK293T cells transiently overexpressing caspase-6 (Homo sapiens, UniProt Q9NX40), sequence (Q9NX40 whole entry): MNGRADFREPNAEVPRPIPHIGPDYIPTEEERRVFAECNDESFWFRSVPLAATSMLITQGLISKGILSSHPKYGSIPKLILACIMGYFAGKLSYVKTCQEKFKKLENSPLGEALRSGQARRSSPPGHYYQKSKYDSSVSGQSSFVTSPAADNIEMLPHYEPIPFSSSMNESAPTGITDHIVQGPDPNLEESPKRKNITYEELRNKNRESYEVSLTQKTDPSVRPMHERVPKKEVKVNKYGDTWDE
proteins of HEK293T cells transiently overexpressing caspase-6 (Homo sapiens, UniProt P20700), sequence (P20700 whole entry): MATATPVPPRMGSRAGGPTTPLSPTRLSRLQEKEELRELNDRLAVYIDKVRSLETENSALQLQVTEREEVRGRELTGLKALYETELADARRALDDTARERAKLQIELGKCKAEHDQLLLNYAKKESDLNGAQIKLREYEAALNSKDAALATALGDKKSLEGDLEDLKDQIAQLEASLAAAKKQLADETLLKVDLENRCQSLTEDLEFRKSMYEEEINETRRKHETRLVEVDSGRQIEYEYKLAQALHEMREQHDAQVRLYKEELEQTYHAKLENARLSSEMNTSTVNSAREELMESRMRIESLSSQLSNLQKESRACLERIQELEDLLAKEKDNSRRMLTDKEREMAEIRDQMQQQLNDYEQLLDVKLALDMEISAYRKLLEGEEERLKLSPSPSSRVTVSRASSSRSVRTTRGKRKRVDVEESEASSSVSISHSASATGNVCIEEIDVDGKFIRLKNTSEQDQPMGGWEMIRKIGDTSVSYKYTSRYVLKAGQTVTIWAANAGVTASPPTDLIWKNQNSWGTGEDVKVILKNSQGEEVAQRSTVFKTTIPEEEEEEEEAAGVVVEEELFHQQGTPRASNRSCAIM
proteins of HEK293T cells transiently overexpressing caspase-6 (Homo sapiens, UniProt P23526), sequence (P23526 whole entry): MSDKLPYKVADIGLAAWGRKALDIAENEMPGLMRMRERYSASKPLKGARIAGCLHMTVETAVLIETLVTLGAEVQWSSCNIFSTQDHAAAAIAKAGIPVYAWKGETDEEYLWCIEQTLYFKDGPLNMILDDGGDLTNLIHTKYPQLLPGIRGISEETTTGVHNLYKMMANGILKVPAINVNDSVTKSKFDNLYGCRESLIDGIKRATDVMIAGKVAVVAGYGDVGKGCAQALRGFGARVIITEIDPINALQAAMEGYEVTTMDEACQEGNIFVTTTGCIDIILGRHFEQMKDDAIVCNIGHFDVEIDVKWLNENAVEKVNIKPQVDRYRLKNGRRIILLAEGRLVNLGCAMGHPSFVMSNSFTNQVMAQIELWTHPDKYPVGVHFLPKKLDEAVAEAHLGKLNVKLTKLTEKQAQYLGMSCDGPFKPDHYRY

C#CCOc1ccc([C@@H]2C[C@@H](C(=O)Nc3ccc(OC(F)(F)F)cc3)CN(S(=O)(=O)C=C)C2)cc1 (relative stereo) [13-t]
enrich.exp.med ([1]; exp_ref Probe, analysis C6): 0.5104 | enrich.exp.med.lin [1]: 1.424 | enrich.exp.med.log2 [1]: 0.5104 | enrich.exp.med ([2]; exp_ref Probe, analysis C6): 0.4797 | enrich.exp.med.lin [2]: 1.394 | enrich.exp.med.log2 [2]: 0.4797 | enrich.exp.med ([3]; exp_ref Probe, analysis C6): 0.9475 | enrich.exp.med.lin [3]: 1.929 | enrich.exp.med.log2 [3]: 0.9475 | enrich.exp.med ([4]; exp_ref Probe, analysis C6): 0.3873 | enrich.exp.med.lin [4]: 1.308 | enrich.exp.med.log2 [4]: 0.3873 | enrich.exp.med [5]: 0.1244 | enrich.exp.med [6]: -0.2652 | enrich.exp.med [7]: 0.06916 | enrich.exp.med [8]: -0.2081 | enrich.exp.med [9]: -1.079 | enrich.exp.med [10]: -1.23 | enrich.exp.med [11]: 0.2022 | enrich.exp.med [12]: 0.6252 | enrich.exp.med [13]: 0.5475 | enrich.exp.med.lin ([14]; Expt Probe): 59.486 | enrich.exp.med.log2 ([14]; Expt Probe): 5.894 | enrich.exp.med ([14]; exp_ref Probe): 5.894 | enrich.exp.med [15]: 2.033 | enrich.exp.med [16]: 0.2171
